We go through 6 compounds from patent US20250064840A1, “DRUG DELIVERY SYSTEMS BASED ON ENDOPEROXIDES USEFUL IN DIAGNOSIS AND THERAPY, AND METHODS THEREOF” (FACULDADE DE FARMÁCIA DA UNIVERSIDADE DE LISBOA, priority 2021, published 2025).

Several values for one entry are separate records, joined by “and”; a condition that tells them apart may be missing. Equal values may be shown once. Read-outs that look alike come from different tables or passages of the source.

For data set [1], the system named is Plasmodium falciparum strain 3D7. As to the kind of experiment: Antimalarial activity, whole-cell SYBR Green I assay. Conditions: read-out: Antimalarial activity (IC50) Mean. In kind it is cell-based. The protocol: Antimalarial activity of compounds IIa and IIb can be accessed by exposing a P. falciparum strain (see Example 5), such as strain 3D7, which is chloroquine and mefloquine sensitive, to said compounds, and by using the SYBR Green I assay as described in Machado et. al, Ann. Clin. Med. Microbio. 2016, 2, 1010. Asynchronous parasites are cultivated for 72 hours in the presence of each compound. Fluorescence intensity was measured with a multi-mode microplate reader (Triad, Dynex Technologies). Compounds IIa and IIb were active against the malaria parasite (see Example 5, Table 1). Compounds were dissolved in RPMI-1640 with L-glutamine (BiowestTM) supplemented with […] (GibcoTM), herein after referred to as RPMIc, to obtain an intermediate solution of 100 μM. Laboratory-adapted P. falciparum strain 3D7, a chloroquine and mefloquine sensitive strain, was continuously cultured as described elsewhere (Machado et. al, Ann. Clin. Med. Microbio. 2016, 2, 1010). Parasites were cultivated in 5% haematocrit, 37° C. and atmosphere with 5% of CO2. […] (GibcoTM) at 0.5% was used as a substitute of human serum in the culture medium. Staging and parasitemia were determined by light microscopy of Giemsa-stained thin blood smears. Anti-malarial activity was determined using the SYBR Green I assay (Machado et. al, Ann. Clin. Med. Microbio. 2016, 2, 1010 and Lobo et. al, […]. 2018, 17, 1). Briefly, asynchronous parasites were cultivated for 72 hours in the presence of a 1:3 serial dilution of each compound.

Data set [2] relates to U251 human glioblastoma. As to the kind of experiment: Antitumoral effect, MTS metabolism assay, U251. In kind it is cell-based. Conditions: U-251, 72 hours.
The test system of data set [3] is PC3 human prostate adenocarcinoma. As to the kind of experiment: Antitumoral effect, MTS metabolism assay, PC3. In kind it is cell-based. Conditions: 72 hours.
Data set [4] concerns HCT116 human colorectal carcinoma. As to the kind of experiment: Antitumoral effect, MTS metabolism assay, HCT116. The conditions noted are these: HCT-116, 72 hours. In kind it is cell-based. In general terms: Tetrazolium assays rely on reduction of a dye to a coloured formazan, in cell work by metabolically active cells.
Data set [5] deals with MCF7 human breast adenocarcinoma. As to the kind of experiment: Antitumoral effect, MTS metabolism assay, MCF7. In kind it is cell-based. The conditions noted are these: 72 hours.
Data set [6] concerns AML12 murine immortalized hepatocyte cell line. Description: Toxicity for non-tumoral cells, MTS assay, AML12. Conditions: for IC50: Mus musculus, non-tumorigenic cell line, 72 hours, MTS; for Selectivity (IC50Compound II/IC50 Doxorubicin): ratio to doxorubicin. In kind it is cell-based.
Data set [7] is described as follows: Fluorescence quantum yields determination. In kind it is physicochemical. Conditions: water with 30% DMSO; standard fluorescein in 0.1 M sodium hydroxide.
Data set [8] concerns HT-29 cells. The conditions noted are these: 2 mg/kg intravenous, eight injections.
Setting [9] is: chloroquine-sensitive 3D7 strain, asynchronous parasites, 72 hours.

Broadly, the IC50 is the concentration that inhibits the measured activity by half. For the compound `CCN(CC)CCCC(C)Nc1ccnc2cc(Cl)ccc12` (stereo not shown) [CQ, chloroquine, reference compound], in data set [1] (3D7, 72 h), the IC50 worked out at 19.4 nM.
In the case of `COc1cc(NC(C)CCCNC(=O)OC2CCCC3(C2)OOC2(OO3)C3CC4CC(C3)CC2C4)c2ncccc2c1` (stereo not shown) [Compound IIa], the IC50 in data set [1] (setting [9]) was determined as 32.8 nM.
Consider `CC(C)(C)OC(=O)N1CCN(C(=O)OC2CCCC3(C2)OOC2(OO3)C3CC4CC(C3)CC2C4)CC1` (stereo not shown) [Compound IIb], for which the IC50 in data set [1] (setting [9]) came to 11.4 nM.
Regarding `COc1cccc2c1C(=O)c1c(O)c3c(c(O)c1C2=O)C[C@](O)(C(=O)CO)C[C@H]3O[C@@H]1CC(NC(=O)OCC2=CCCCC23OOC2(OO3)C3CC4CC2CC(O)(C4)C3)[C@@H](O)[C@@H](C)O1` (stereo partly shown) [Compound IIe], the IC50 in data set [2] is 13200 nM; in data set [3], 14300 nM; in data set [4], 3.52 µM; in data set [5], 8450 nM; in data set [6] it was 30500 nM. Also, the “Selectivity (IC50Compound II/IC50 Doxorubicin)” value in data set [6] was 180 and 179.
`COc1cccc2c1C(=O)c1c(O)c3c(c(O)c1C2=O)C[C@@](O)(C(=O)CO)C[C@@H]3O[C@H]1C[C@H](N)[C@H](O)[C@H](C)O1` [Doxorubicin, doxorubicin, reference compound]: the IC50 was 11 nM in data set [2]; 120 nM in data set [3]; 0.05 µM in data set [4]; 170 nM in data set [5]; 170 nM in data set [6]. The same compound gave a fluorescence quantum yield in data set [7] of 2.8%. Besides, the “reduction of the tumour mass versus negative control and vehicle control” value in data set [8] is recorded as “higher reduction of the tumour mass”.
Take `COc1cccc2c1C(=O)c1c(O)c3c(c(O)c1C2=O)C[C@](O)(C(=O)CO)C[C@H]3O[C@@H]1CC(NC(=O)OC2CCCC3(C2)OOC2(OO3)C3CC4CC(C3)CC2C4)[C@@H](O)[C@@H](C)O1` (stereo partly shown) [IIc]: the IC50 in data set [2] was 250 nM; in data set [3], 1370 nM; in data set [4], 5.11 µM; in data set [5], 1650 nM; in data set [6], 1830 nM. In data set [6], the “Selectivity (IC50Compound II/IC50 Doxorubicin)” value is 10 and 10.64.
